Results published in publication PMC4786250, “Effects of Intraosseous Tibial vs. Intravenous Vasopressin in a Hypovolemic Cardiac Arrest Model” (Western Journal of Emergency Medicine, 2016).

Columns and labels:
[1] = Vasopressin concentration in blood samples (HPLC-MS/MS) after tibial IO or IV administration in a hypovolemic cardiac arrest model; format: in vivo, Yorkshire swine; settings: 40 units; for Cmax / Tmax / level at 1 min: Yorkshire, serum; for Cmax / Tmax: pig, mean ± standard deviation; for Cmax: during CPR, male swine 60-80 kg, 31% blood volume hemorrhage, ventricular fibrillation, femoral artery samples 0.5-4 min, HPLC-MS/MS; for Tmax / level at 1 min: male; for Tmax: SD; for level at 1 min: 60 seconds after injection, mean ± standard error, SEM
From the text: (§1) The study was a prospective, between-subjects, experimental design. The Institutional Animal Care and Use Committee (IACUC) approved the research protocol, and the animals received care in compliance with the Animal Welfare Act. Twenty-eight Yorkshire swine were randomly assigned by a computer generated random number program to one of four groups: IV + defibrillation (n=7), IO tibia + defibrillation (n=7), CPR + defibrillation (n=7), and a control group that received just CPR (n=7). Two additional swine were added in the each of the IV and IO groups for model development. These two swine meet the criteria for inclusion in the study, and no changes were necessary in the protocol. Therefore, the pigs were included in both groups to make a total of eight in both the tibial IO and IV groups. However, one pig in the IO group was ill and was deleted from the study making a total of seven in that group.
(§2) In addition, their blood volume is the same as humans: 70ml per kg of body weight.[18],[19] To avoid any variability in subjects, we purchased the swine from the same vendor and acquired pigs that were approximately the same size. Male swine were used to avoid any potential hormonal effects. Subjects weighing between 60 to 80kg were used as this range represents the average weight of an adult, human.[20] […] All subjects received no food after midnight the evening before the study but were allowed fluids as desired until the experiment
(§3) Each subject received pre-emptive analgesia with Telazol (4–8mg/kg). They were then sedated, anesthetized, intubated, and placed on mechanical ventilation. A standard Narkomed® anesthesia machine (Dräger, Telford, PA) was used to deliver isoflurane at a maintenance dose (0.5–2%) and ventilation at 8–10mL/kg at 10–14 breaths per minute. A peripheral IV was started on all subjects using an 18- or 20-gauge catheter in the auricular vein. […] Hemodynamics were evaluated continuously that included the following: electrocardiogram, arterial blood pressure via a left carotid artery catheter, mean arterial pressure, oxygen saturation, end-tidal carbon dioxide, and temperature. A forced-air warming blanket was used to sustain rectal temperature greater than 36 degrees Celsius. A Vigileo™ (Edwards Lifesciences, Irvine, CA) was used to obtain cardiac output and stroke volume measurements via the arterial line. The femoral artery was cannulated for the collection of blood samples and for the achievement of controlled hemorrhage.
(§4) For swine in the tibial IO group, we inserted an EZ-IO® device (Vidacare, San Antonio, TX) in the proximal, medial tibia. Placement was confirmed by aspiration of blood and easy irrigation with 10mL of 0.9% normal saline (NS). Patency was maintained by administering Lactated Ringer’s solution with a pressure bag at 300mmHg. Subjects were allowed to stabilize for 15 minutes; we then exsanguinated 31% of their blood volume from the femoral artery catheter into a canister. This represented a Class III hemorrhage. Hemorrhage was accomplished by allowing blood to drain by gravity over approximately 15 minutes. To ensure the amount exsanguinated was correct, the investigators used a scale that was accurate and precise within 0.5%.
(§5) In response to hypovolemic shock in accordance with Tactical Combat Casualty Care guidelines, we administered 500mL of 5% albumin to all subjects over 10 minutes.[22] Five minutes after the administration of albumin, the investigators placed the pigs in cardiac arrest, defined as a nonperfusing arrhythmia. […] The needles were attached to alligator clamps. The clamps were attached to three 9-volt batteries that were connected in a series to deliver an electrical current, thereby inducing nonperfusing ventricular fibrillation. We were able to establish ventricular fibrillation usually within 10 seconds. In some cases, we had to reposition the needles resulting in 100% being placed into ventricular fibrillation.
(§6) The pigs were allowed to remain in arrest for two minutes. […]

[2] = tested on: hypovolemic cardiac arrest model; test: Return of spontaneous circulation (ROSC) in a hypovolemic cardiac arrest model; format: in vivo, Yorkshire swine; settings: for time to ROSC: 40 units, mean ± standard deviation, SD; for Number achieving ROSC / Number not achieving ROSC: 40 units + CPR + defibrillation, up to 20 min
From the text: as §1, §2, §3, §4, §5, §6

NC(=O)CC[C@@H]1NC(=O)[C@H](Cc2ccccc2)NC(=O)[C@H](Cc2ccc(O)cc2)NC(=O)[C@@H](N)CSSC[C@@H](C(=O)N2CCC[C@H]2C(=O)N[C@@H](CCCN=C(N)N)C(=O)NCC(N)=O)NC(=O)[C@H](CC(N)=O)NC1=O [vasopressin]
Cmax ([1]; IV (auricular vein) push, n=8): 106 ng/mL | Cmax ([1]; tibial IO push, n=7): 58.7 ng/mL | Tmax ([1]; IV, n=8): 1.43 min | Tmax ([1]; tibial IO, n=7): 2.63 min | level at 1 min ([1]; IV, n=8): 76.8 ng/mL | level at 1 min ([1]; tibial IO, n=7): 23.6 ng/mL | Cmax concentration of the IO group compared to the IV group ([1]; tibial IO relative to IV): 55% | time to ROSC ([2]; IO group (line "IO vs. CPR + defibrillation")): 493 ± 226 s | Odds of ROSC ([2]; IO vs. CPR + defibrillation): 15 | Odds of ROSC ([2]; IO vs. CPR only): 65 | time to ROSC ([2]; IV group (line "IV vs. IO")): 559 ± 231 s | Odds of ROSC ([2]; IV vs. CPR + defibrillation): 17.5 | Odds of ROSC ([2]; IV vs. CPR only): 75 | Number achieving ROSC ([2]; IV, N=8): 7 | Number not achieving ROSC ([2]; IV, N=8): 1 | Number achieving ROSC ([2]; tibial IO, N=7): 6 | Number not achieving ROSC ([2]; tibial IO, N=7): 1
